Patent US20010051612A1, “2-Thioether A2A receptor agonists” (priority 2000, published 2001)

Legend:
A2A adenosine receptor = biological target: T1, A2A adenosine receptor (Sus scrofa, UniProt K9IW67); test: Affinity for the A2A receptor in a pig striatum membrane prep (displacement of tritiated ZM 241385); type: binding; details: pig striatal membranes, [3H]ZM 241385 2 nM, 23° C. 2h, Ki from IC50
T1 construct: from tissue; host or cells: pig striatum membranes
Method: Compositions of this invention were assayed to determine their affinity for the A2A receptor in a pig striatum membrane prep. 0.2 mg of pig striatal membranes were treated with adenosine deaminase and 50 mM Tris buffer (pH=7.4) followed by mixing. […] After incubation at 23° C. for 2h, the solutions were filtered using a membrane harvester using multiple washing of the membranes (3×). The filter disks were counted in scintillation cocktail affording the amount of displacement of tritiated ZM by the competitive binding compositions of this invention. Greater than a 5 point curve was used to generate IC50's and the number of experiments (n) is indicated in the column marked in Tables 3-4 below. The Chang-Prusoff equation was used to generate Ki's from the IC50 data.

A1 = biological target: T2, A1 (Homo sapiens, UniProt P30542); test: Affinity for the A1 receptor (Ki column, no method described); type: binding; details: compounds 1a-5a table
T2 sequence (P30542 1-326): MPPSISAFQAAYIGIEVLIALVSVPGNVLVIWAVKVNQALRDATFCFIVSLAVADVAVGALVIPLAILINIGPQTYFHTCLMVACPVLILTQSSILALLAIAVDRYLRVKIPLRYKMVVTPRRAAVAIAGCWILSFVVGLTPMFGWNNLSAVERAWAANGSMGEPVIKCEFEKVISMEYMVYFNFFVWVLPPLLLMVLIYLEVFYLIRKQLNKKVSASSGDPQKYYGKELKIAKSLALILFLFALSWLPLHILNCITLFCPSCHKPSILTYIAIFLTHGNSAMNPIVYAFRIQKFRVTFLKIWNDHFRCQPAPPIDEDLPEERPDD

T1 sequence (K9IW67 1-409): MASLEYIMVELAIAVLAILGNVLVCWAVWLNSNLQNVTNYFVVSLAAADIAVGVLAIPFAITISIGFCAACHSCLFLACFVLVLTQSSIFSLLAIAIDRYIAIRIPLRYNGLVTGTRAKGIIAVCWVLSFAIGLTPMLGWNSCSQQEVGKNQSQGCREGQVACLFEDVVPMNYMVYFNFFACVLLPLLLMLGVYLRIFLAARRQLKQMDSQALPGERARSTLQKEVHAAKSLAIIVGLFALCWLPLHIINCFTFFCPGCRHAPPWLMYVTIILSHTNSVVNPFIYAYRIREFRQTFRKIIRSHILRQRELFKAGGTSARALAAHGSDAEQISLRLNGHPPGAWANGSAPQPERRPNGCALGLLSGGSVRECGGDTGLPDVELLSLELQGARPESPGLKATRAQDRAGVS

Structure (SMILES) | Ki (A2A adenosine receptor; compounds 1a-5a) | melting point | Ki (A1) | Ki (A2A adenosine receptor; Table 3, compounds 1-7)
CCNC(=O)[C@H]1O[C@@H](n2cnc3c(N)nc(SCCCc4ccccc4)nc32)[C@H](O)[C@@H]1O [Compound 4a, [(2S, 3S, 4R, 5R)-5-(6-amino-2-(phenylpropylthio)purin-9-yl)-3,4-dihydroxyoxolan-2-yl]-N-ethylcarboxamide] | 6280 nM | 185 to 188 °C | – | –
CCCCCSc1nc(N)c2ncn([C@@H]3O[C@H](C(=O)NCC)[C@@H](O)[C@H]3O)c2n1 [Compound 5a, [(2S, 3S, 4R, 5R)-5-(6-amino-2-pentylthiopurin-9-yl)-3,4-dihydroxyoxolan-2-yl]-N-ethylcarboxamide] | 4310 nM | > 270 °C (dec.) | – | –
CCNC(=O)[C@H]1O[C@@H](n2cnc3c(N)nc(Sc4ccccc4)nc32)[C@H](O)[C@@H]1O [Compound 1a, [(2S, 3S, 4R, 5R)-5-(6-amino-2-phenylthiopurin-9-yl)-3,4-dihydroxyoxolan-2yl]-N -ethylcarboxamide] | 6120 nM | 122 to 125 °C | – | –
CCNC(=O)[C@H]1O[C@@H](n2cnc3c(N)nc(SCc4ccccc4)nc32)[C@H](O)[C@@H]1O [Compound 2a, [(2S, 3S, 4R, 5R)-5-(6-amino-2-(phenylmethylthio)purin-9-yl)-3,4-dihydroxyoxolan-2yl]-N-ethylcarboxamide] | > 10000 nM | 245 °C (dec.) | – | –
CCNC(=O)[C@H]1O[C@@H](n2cnc3c(N)nc(SCCc4ccccc4)nc32)[C@H](O)[C@@H]1O [Compound 3a, [(2S, 3S, 4R, 5R)-5-(6-amino-2-(phenylethylthio)purin-9-yl)-3,4-dihydroxyoxolan-2-yl]-N-ethylcarboxamide] | 85 nM | 97 to 99 °C | > 10000 nM | –
Nc1nc(SCCCc2ccccc2)nc2c1ncn2[C@@H]1O[C@H](CO)[C@@H](O)[C@H]1O [Compound 4, (4S, 2R, 3R, 5R)-2-(6-amino-2-phenylpropylthiopurin-9-yl)-5-(hydroxymethyl)oxolane-3,4-diol] | – | – | – | > 10000 nM
Nc1nc(SC2CCCC2)nc2c1ncn2[C@@H]1O[C@H](CO)[C@@H](O)[C@H]1O [Compound 7, (4S, 2R, 3R, 5R)-2-(6-amino-2-cyclopentylthiopurin-9-yl)-5-(hydroxymethyl)oxolane-3,4-diol] | – | 213 °C (dec.) | – | > 10000 nM
Nc1nc(SCc2ccccc2)nc2c1ncn2[C@@H]1O[C@H](CO)[C@@H](O)[C@H]1O [Compound 2, (4S, 2R. 3R, 5R)-2-(6-amino-2-phenylmethylthiopurin-9-yl)-5-(hydroxymethyl)-oxolane-3,4-diol] | – | – | – | 9540 nM
Nc1nc(Sc2ccccc2)nc2c1ncn2[C@@H]1O[C@H](CO)[C@@H](O)[C@H]1O [Compound 1, (4S, 2R, 3R, 5R)-2-(6-amino-2-phenylthiopurin-9-yl)-5-(hydroxymethyl)oxolane-3,4-diol] | – | 137 to 139 °C | – | > 10000 nM
CCCCCSc1nc(N)c2ncn([C@@H]3O[C@H](CO)[C@@H](O)[C@H]3O)c2n1 [Compound 5, (4S, 2R,3R, 5R)-2-(6-amino-2-pentyltiopurin-9-yl)-5-(hydroxymethymethyl)oxolane-3,4-diol] | – | 177 °C (dec.) | – | > 10000 nM
Nc1nc(SCCCCO)nc2c1ncn2[C@@H]1O[C@H](CO)[C@@H](O)[C@H]1O [Compound 6, (4S, 2R, 3R, 5R)-2-(6-amino-2-(4-hydroxybutylthio)purin-9-yl)-5-(hydroxymethyl)oxolane-3,4-diol] | – | 88 to 90 °C | – | > 100000 nM
